Paper PMC4406241 (Current eye research, 2009)

Target: T1, Breast Cancer Resistance Protein (BCRP) (Homo sapiens, UniProt Q9UNQ0)
T1 sequence (Q9UNQ0 1-655): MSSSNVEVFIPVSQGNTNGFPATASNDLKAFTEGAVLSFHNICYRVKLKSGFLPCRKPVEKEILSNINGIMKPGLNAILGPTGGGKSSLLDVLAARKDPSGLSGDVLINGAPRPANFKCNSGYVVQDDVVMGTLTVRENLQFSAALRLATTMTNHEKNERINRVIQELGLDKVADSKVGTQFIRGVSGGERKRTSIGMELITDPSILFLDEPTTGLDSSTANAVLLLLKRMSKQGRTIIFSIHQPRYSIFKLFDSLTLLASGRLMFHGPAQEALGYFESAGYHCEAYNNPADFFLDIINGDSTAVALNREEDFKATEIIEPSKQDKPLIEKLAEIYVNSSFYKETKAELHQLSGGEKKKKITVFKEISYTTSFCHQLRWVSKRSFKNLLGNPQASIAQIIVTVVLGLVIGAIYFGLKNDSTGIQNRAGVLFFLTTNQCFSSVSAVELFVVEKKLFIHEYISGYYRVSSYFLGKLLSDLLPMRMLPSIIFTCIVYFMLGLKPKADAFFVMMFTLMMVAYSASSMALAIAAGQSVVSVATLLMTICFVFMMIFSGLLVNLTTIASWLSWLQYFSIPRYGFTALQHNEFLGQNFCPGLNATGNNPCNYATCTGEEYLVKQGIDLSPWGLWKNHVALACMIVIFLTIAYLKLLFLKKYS
Assay: inhibition of [3H]-MTX efflux from MDCKII-BCRP transfected cells and SV40-HCEC
Format: cell-based

Question: Which IC50 does the source give for `COc1ccc2c3c([nH]c2c1)[C@H](C=C(C)C)N1C(=O)[C@@H]2CCCN2C(=O)[C@@H]1C3` [FTC, Fumetremorgin C] here?
Answer: ~10 µM
